Assay results taken from patent US20250221979A1, “NOVEL HETEROCYCLIC COMPOUND” (SHOUYAO HOLDINGS (BEIJING) CO., LTD., priority 2022, published 2025).
Structures can show the parent of a compound that is named as a salt.

Target: human MAT2A enzyme (Homo sapiens (Human), UniProt P31153)
Experiment: In vitro enzymatic inhibition activity assay on MAT2A (PiColorLock phosphate detection)
Assay type: biochemical
Details: purified human MAT2A 10 nM, ATP 50 μM, L-methionine 100 μM, 6 h at 23° C.; read-out: MAT2A inhibitory activity IC50
How it was run: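 Purified human MAT2A (10 nM) turned L-methionine (100 μM) and ATP (50 μM) into SAM in Tris-HCl pH 7.5 buffer with MgCl2, KCl and DTT for 6 h at 23 °C. Released phosphate was read colorimetrically at 630 nm. IC50 was fitted from an 8-point, 10-fold dilution series.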

Chain of human MAT2A enzyme (P31153 whole entry): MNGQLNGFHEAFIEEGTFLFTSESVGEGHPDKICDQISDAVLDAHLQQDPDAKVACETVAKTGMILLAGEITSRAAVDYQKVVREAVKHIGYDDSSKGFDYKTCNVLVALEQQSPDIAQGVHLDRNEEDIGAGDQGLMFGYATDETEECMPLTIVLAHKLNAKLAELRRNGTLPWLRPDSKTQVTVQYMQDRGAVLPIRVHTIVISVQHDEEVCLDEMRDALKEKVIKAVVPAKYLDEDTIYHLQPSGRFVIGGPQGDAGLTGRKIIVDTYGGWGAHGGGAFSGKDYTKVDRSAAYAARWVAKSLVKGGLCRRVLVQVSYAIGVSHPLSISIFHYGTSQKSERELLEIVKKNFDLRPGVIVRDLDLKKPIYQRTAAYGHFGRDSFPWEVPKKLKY

| Compound | IC50 |
| --- | --- |
| COC(=O)c1c(N)c2ccc(Br)nc2n(-c2ccc(I)cc2)c1=O [Example 275, methyl 4-amino-7-bromo-1-(4-iodophenyl)-2-oxo-1,2-dihydro-1,8-naphthyridine-3-carboxylate] | 0.15 nM |
| COC(=O)c1c(N)c2c(F)cc(Br)cc2n(-c2ccc(N)cc2)c1=O [Example 339, methyl 4-amino-1-(4-aminophenyl)-7-bromo-5-fluoro-2-oxo-1,2-dihydroquinoline-3-carboxylate] | 2.3 nM |
| COC(=O)c1c(N)c2ccc(Br)nc2n(-c2ccc(N)cc2Cl)c1=O [Example 295, methyl 4-amino-1-(4-amino-2-chlorophenyl)-2-oxo-7-bromo-1,2-dihydro-1,8-naphthyridine-3-carboxylate] | 0.89 nM |
| COC(=O)c1c(N)c2ccc(C3CC3)nc2n(-c2ccc(C)nc2)c1=O [Example 377, methyl 4-amino-7-cyclopropyl-1-(6-methylpyridin-3-yl)-2-oxopyrido[2,3-b]pyridin-3-carboxylate] | 1.89 nM |
| COC(=O)c1c(N)c2ccc(Br)nc2n(-c2cccc3c(C)nccc23)c1=O [Example 290, methyl 4-amino-1-(1-methylisoquinolin-5-yl)-7-bromo-2-oxo-1,2-dihydro-1,8-naphthyridine-3-carboxylate] | 0.79 nM |
| Nc1c(C(=O)OC2CC2)c(=O)n(-c2ccccc2)c2cc(I)ccc12 [Example 50, cyclopropyl 4-amino-7-iodo-2-oxo-1-phenyl-1,2-dihydroquinolin-3-carboxylate] | 4.57 nM |
| COC(=O)c1c(N)c2ccc(Br)cc2n(-c2ccccc2N)c1=O [Example 250, methyl 4-amino-1-(2-aminophenyl)-7-bromo-2-oxo-1,2-dihydroquinoline-3-carboxylate] | 6.06 nM |
| COC(=O)c1c(N)c2ccc(OC(C)C)nc2n(-c2ccc(Cl)cc2)c1=O [Example 388, methyl 4-amino-1-(4-chlorophenyl)-7-isopropoxy-2-oxo-1,2-dihydro-1,8-naphthyridine-3-carboxylate] | 1.55 nM |
| COC(=O)c1c(N)c2ccc(I)cc2n(Cc2ccccc2)c1=O [Example 28, methyl 4-amino-1-benzyl-7-iodo-2-oxo-1,2-dihydroquinoline-3-carboxylate] | 3.62 nM |

More lines, now with the values ahead:

| IC50 | Compound |
| --- | --- |
| 8.85 nM | COC(=O)c1c(N)c2ccc(C(F)(F)F)cc2n(-c2ccc3c(c2)CCC3O)c1=O (stereo not drawn) [Example 135, methyl 4-amino-1-(1-hydroxy-2,3-dihydro-1H-inden-5-yl)-2-oxo-7-(trifluoromethyl)-1,2-dihydroquinoline-3-carboxylate] |
| 6.47 nM | COC(=O)c1c(N)c2ccc(C(F)(F)F)cc2n(-c2cccc3ccncc23)c1=O [Example 192, methyl 4-amino-1-(isoquinolin-8-yl)-2-oxo-7-(trifluoromethyl)-1,2-dihydro quinoline-3-carboxylate] |
| 1.25 nM | COC(=O)c1c(N)c2ccc(C(F)F)cc2n(-c2ccc(N)cc2)c1=O [Example 327, methyl 4-amino-1-(4-aminophenyl)-2-oxo-7-(difluoromethyl)-1,2-dihydro quinoline-3-carboxylate] |
| 0.46 nM | COC(=O)c1c(N)c2ccc(OC(F)F)cc2n(-c2ccc([C@@H](C)O)cc2)c1=O [Example 354, methyl (R)-4-amino-7-(difluoromethoxy)-1-(4-(1-hydroxyethyl)phenyl)-2-oxo-1,2-dihydroquinoline-3-carboxylate] |
| 2.89 nM | CNc1ccc(-n2c(=O)c(C(=O)OC)c(N)c3ccc(C(F)(F)F)cc32)cc1 [Example 115, methyl 4-amino-1-(4-(methylamino)phenyl)-2-oxo-7-(trifluoromethyl)-1,2-dihydroquinoline-3-carboxylate hydrochloride] |
| 1.66 nM | COC(=O)c1c(N)c2ccc(C(F)(F)F)nc2n(-c2ccccc2)c1=O [Example 150, methyl 4-amino-2-oxo-1-phenyl-7-(trifluoromethyl)-1,2-dihydro-1,8-naphthyridine-3-carboxylate] |
